Laboratory results: patent US7598255B2 (Janssen Pharmaceutica NV, priority 2005, dated 2009)
Structures can show the parent of a compound that is named as a salt.

Experiments:
rat 5-HT7a receptor = rat 5-HT7a receptor (Rattus norvegicus, UniProt P32305); assay: Affinity for 5-HT7 receptor binding sites, radioligand binding with [3H]5-CT; conditions: membranes of HEK-293 cells with rat 5-HT7a, 1 nM [3H]5-CT
How it was run: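 Competition binding on membranes from HEK-293 cells stably expressing rat 5-HT7a, 135 μg protein/mL in 50 mM Tris-HCl pH 7.5, 5 mM EDTA. Incubated 60 min at RT with 1 nM [3H]5-CT and increasing compound concentrations; nonspecific binding with 10 μM 5-HT. Filtration and scintillation counting, in triplicate.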

5-HT2B receptor [1] = target: T1, 5-HT2B receptor (Homo sapiens, UniProt P41595); assay: Affinity for 5HT2 receptor binding sites, h5-HT2B, [3H]mesulergine; conditions: CHO h5-HT2B membranes
T1 sequence (P41595 whole entry): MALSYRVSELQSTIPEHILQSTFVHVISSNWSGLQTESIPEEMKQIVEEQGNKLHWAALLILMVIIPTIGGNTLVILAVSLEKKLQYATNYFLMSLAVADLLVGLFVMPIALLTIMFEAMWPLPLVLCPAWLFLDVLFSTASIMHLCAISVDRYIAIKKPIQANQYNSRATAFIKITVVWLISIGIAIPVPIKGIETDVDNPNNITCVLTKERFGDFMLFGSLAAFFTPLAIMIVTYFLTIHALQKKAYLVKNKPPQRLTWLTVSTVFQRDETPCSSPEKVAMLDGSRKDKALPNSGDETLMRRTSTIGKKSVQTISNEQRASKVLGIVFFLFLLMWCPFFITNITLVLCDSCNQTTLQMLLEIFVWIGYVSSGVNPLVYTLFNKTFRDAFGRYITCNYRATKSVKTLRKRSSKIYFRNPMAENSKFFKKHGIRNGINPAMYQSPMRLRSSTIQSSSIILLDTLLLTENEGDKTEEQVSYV
Experimental: (§1) Sigmoidal inhibition curves were generated and fitted by nonlinear regression analysis (GraphPad Prism).
(§2) Receptor binding was performed using the human recombinant 5-HT2A (GB: X57830), 5-HT2B (GB: Z36748) and 5-HT2C (GB: M81778) receptors. The affinity of the compounds for the 3 different human 5-HT2 receptor subtypes was evaluated by competitive radioligand binding assays using [^3H]ketanserin (h5-HT2A) or [^3H]mesulergine (h5-HT2B and h5-HT2C). The assays were performed on membranes prepared from NIH3T3 stably transfected with h5-HT2A or CHO stably transfected with h5-HT2B and h5-HT2C.

[2] = target: T2, human recombinant 5-HT2C receptor (Homo sapiens, UniProt P28335); assay: Affinity for 5HT2 receptor binding sites, h5-HT2C, [3H]mesulergine; conditions: CHO h5-HT2C membranes
T2 sequence (P28335 33-458): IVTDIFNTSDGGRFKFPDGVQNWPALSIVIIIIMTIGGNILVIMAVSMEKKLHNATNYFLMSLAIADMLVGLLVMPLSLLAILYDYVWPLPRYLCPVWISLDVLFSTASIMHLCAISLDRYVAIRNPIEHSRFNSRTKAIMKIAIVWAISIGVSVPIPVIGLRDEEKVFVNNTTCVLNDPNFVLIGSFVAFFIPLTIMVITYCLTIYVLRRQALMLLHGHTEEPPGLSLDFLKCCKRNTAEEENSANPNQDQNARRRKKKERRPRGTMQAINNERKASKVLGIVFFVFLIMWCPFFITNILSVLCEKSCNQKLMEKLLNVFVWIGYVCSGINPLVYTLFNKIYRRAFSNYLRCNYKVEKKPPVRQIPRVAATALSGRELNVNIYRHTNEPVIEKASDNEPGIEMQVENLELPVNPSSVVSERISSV
Experimental: as §1, §2

5-HT2A receptor [3] = target: T3, 5-HT2A receptor (Homo sapiens, UniProt P28223); assay: In vitro functional assay for 5-HT2 receptor (intracellular calcium, FLIPR), 5-HT2A; assay type: cell-based; conditions: same cell lines as receptor binding, read-out: pKb 5-HT2A (converted)
T3 sequence (P28223 whole entry): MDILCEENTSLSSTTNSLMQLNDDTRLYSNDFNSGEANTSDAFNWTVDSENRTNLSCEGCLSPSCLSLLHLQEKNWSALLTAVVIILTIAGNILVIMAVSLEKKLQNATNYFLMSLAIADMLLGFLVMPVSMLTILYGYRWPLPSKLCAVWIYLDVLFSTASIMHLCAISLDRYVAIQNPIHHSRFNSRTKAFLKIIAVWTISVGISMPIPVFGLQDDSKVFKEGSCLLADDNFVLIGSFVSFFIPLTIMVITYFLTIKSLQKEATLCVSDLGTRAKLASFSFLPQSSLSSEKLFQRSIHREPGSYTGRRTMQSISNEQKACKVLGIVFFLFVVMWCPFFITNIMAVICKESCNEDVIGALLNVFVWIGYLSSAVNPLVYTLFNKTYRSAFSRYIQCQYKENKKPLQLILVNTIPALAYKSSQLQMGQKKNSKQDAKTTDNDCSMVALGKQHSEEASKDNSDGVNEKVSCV
Source text: The 5-HT2 receptors are linked to the Gq family of G proteins and to subsequent activation of phospholipase C, induction of phosphoinositide metabolism and to an increase in intracelular calcium concentration. The same cell lines as described in the previous section (receptor binding) were used for the FLIPR experiments.

5-HT2A receptor [4] = target: T3, 5-HT2A receptor; assay: Affinity for 5-HT2A receptor binding sites, radioligand binding with [3H]ketanserin; conditions: read-out: Ki 5-HT2A, rat cortex membranes (assay 2) or NIH3T3 h5-HT2A membranes (assay 3), table does not say which
Experimental: as §1
The affinity of the compounds for the rat 5-HT2A receptor was evaluated by competitive radioligand binding assay using [^3H]ketanserine as the radioligand. […] Brain tissue (rat cortex) was homogenized in 20 volumes per wet weight tissue of Tris-HCl buffer (50 mM, pH 7.4). The total membrane fraction was collected by centrifugation and washed by subsequent centrifugation runs (25 min at 25,000 g at 4° C.). Membranes were re-suspended in Tris-HCl buffer (50 mM, pH 7.4) containing 1 nM [^3H]ketanserin. Non-specific binding was estimated in the presence of 10 μM risperidone. The incubation was terminated by rapid filtration over Whatman GF/B filters pre-soaked in 0.1% polyethylenimine, and one washing step with 1 mL ice-cold Tris-HCl buffer, pH 7.4.

5-HT2B receptor [5] = target: T1, 5-HT2B receptor; assay: In vitro functional assay for 5-HT2 receptor (intracellular calcium, FLIPR), 5-HT2B; assay type: cell-based; conditions: same cell lines as receptor binding, read-out: pKb 5-HT2B (converted)
Experimental: In vitro functional properties of these compounds on the different 5-HT2 receptor substypes were determined using fluorometric imaging plate reader (FLIPR) based calcium assay as previously described (Porter, R. H. et al. Br. J. Pharmacol. 1999, 128, 13-20; Jerman, J. C. et al. Eur. J. Pharmacol. 2001, 414, 23-30). The 5-HT2 receptors are linked to the Gq family of G proteins and to subsequent activation of phospholipase C, induction of phosphoinositide metabolism and to an increase in intracelular calcium concentration. The same cell lines as described in the previous section (receptor binding) were used for the FLIPR experiments.

[6] = target: human recombinant 5-HT6 receptor (Homo sapiens, UniProt P50406); assay: Affinity for 5-HT6 receptor binding sites, [3H]LSD; conditions: HEK-293 h5-HT6 membranes
Chain of human recombinant 5-HT6 receptor (P50406 whole entry): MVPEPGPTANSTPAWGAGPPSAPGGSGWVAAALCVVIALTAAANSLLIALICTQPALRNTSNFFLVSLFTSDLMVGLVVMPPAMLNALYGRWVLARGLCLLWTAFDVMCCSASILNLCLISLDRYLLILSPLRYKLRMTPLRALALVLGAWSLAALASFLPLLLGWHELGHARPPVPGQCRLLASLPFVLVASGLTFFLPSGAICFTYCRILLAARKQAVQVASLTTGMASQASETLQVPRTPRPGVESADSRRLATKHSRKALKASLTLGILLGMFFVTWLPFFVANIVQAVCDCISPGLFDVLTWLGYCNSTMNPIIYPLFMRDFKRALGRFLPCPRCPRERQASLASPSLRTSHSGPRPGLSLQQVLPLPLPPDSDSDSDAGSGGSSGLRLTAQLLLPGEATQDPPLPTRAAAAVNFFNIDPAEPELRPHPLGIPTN

Chain of rat 5-HT7a receptor (P32305 whole entry): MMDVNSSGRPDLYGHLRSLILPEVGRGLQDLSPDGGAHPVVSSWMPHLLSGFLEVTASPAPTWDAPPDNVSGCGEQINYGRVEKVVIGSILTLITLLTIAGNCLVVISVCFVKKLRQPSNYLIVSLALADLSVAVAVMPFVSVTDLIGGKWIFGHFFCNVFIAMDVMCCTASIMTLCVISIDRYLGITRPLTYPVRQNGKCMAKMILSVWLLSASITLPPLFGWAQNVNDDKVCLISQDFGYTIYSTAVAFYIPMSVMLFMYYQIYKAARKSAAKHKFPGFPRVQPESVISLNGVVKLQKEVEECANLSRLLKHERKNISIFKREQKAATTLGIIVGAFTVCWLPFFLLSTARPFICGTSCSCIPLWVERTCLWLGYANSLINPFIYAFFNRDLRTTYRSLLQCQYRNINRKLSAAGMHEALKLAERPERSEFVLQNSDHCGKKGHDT

## Fc1ccc(Cc2nc3c(c(-c4ccc(F)cc4)n2)CNCC3)cc1 [Example 13, 2-(4-Fluoro-benzyl)-4-(4-fluoro-phenyl)-5,6,7,8-tetrahydro-pyrido[4,3-d]pyrimidine]
Rat 5-HT7a receptor
  Ki: > 10000 nM
5-HT2B receptor [1]
  Ki: 2200 nM
[2]
  Ki: 1000 nM
5-HT2A receptor [3]
  Kb: 79.4 nM
5-HT2A receptor [4]
  Ki: 12.5 nM

## Fc1ccc(-c2nc(C3CCCC3)nc3c2CNCC3)cc1 [Example 17, 2-Cyclopentyl-4-(4-fluoro-phenyl)-5,6,7,8-tetrahydro-pyrido[4,3-d]pyrimidine]
Rat 5-HT7a receptor
  Ki: > 10000 nM
5-HT2B receptor [1]
  Ki: 250 nM
[2]
  Ki: 70 nM
5-HT2A receptor [3]
  Kb: 7.94 nM
5-HT2B receptor [5]
  Kb: 3980 nM
5-HT2A receptor [4]
  Ki: 4 nM

## Cc1ccc(-c2nc(C3CCCC3)nc3c2CNCC3)cc1 [Example 18, 2-Cyclopentyl-4-p-tolyl-5,6,7,8-tetrahydro-pyrido[4,3-d]pyrimidine]
Rat 5-HT7a receptor
  Ki: 525 nM
5-HT2B receptor [1]
  Ki: 80 nM
[2]
  Ki: 60 nM
[6]
  Ki: 330 nM
5-HT2A receptor [3]
  Kb: 25.1 nM
5-HT2B receptor [5]
  Kb: 200 nM
5-HT2A receptor [4]
  Ki: 10 nM

## CC(C)c1nc2c(c(-c3ccc(F)cc3)n1)CNCC2 [Example 21, 4-(4-Fluoro-phenyl)-2-isopropyl-5,6,7,8-tetrahydro-pyrido[4,3-d]pyrimidine hydrochloride]
Rat 5-HT7a receptor
  Ki: > 10000 nM
5-HT2B receptor [1]
  Ki: 1190 nM
[2]
  Ki: 1170 nM
[6]
  Ki: > 10000 nM
5-HT2A receptor [3]
  Kb: 31.6 nM
5-HT2A receptor [4]
  Ki: 25 nM

## CC(C)c1nc2c(c(-c3ccc(F)cc3)n1)CCNCC2 [Example 50, 4-(4-Fluoro-phenyl)-2-isopropyl-6,7,8,9-tetrahydro-5H-pyrimido[4,5-d]azepine hydrochloride]
Rat 5-HT7a receptor
  Ki: 240 nM
5-HT2B receptor [1]
  Ki: 20 nM
[2]
  Ki: 80 nM
[6]
  Ki: 260 nM
5-HT2B receptor [5]
  Kb: 5.01 nM
5-HT2A receptor [4]
  Ki: 3.7 nM

## Fc1ccc(Cc2nc3c(c(-c4ccc(F)cc4)n2)CCNCC3)cc1 [Example 57, 2-(4-Fluoro-benzyl)-4-(4-fluoro-phenyl)-6,7,8,9-tetrahydro-5H-pyrimido[4,5-d]azepine]
Rat 5-HT7a receptor
  Ki: 550 nM
5-HT2B receptor [1]
  Ki: 40 nM
[2]
  Ki: 50 nM
[6]
  Ki: 80 nM
5-HT2A receptor [3]
  Kb: 6.31 nM
5-HT2B receptor [5]
  Kb: 126 nM
5-HT2A receptor [4]
  Ki: 0.7 nM

## COc1ccc(-c2nc(C3CCCC3)nc3c2CCN(C)CC3)cc1 [Example 60, 2-Cyclopentyl-4-(4-methoxy-phenyl)-7-methyl-6,7,8,9-tetrahydro-5H-pyrimido[4,5-d]azepine]
Rat 5-HT7a receptor
  Ki: 400 nM
5-HT2B receptor [1]
  Ki: 10 nM
[2]
  Ki: 60 nM
[6]
  Ki: 60 nM
5-HT2A receptor [4]
  Ki: 6 nM

## Cc1ccc(-c2nc(Cc3ccccc3)nc3c2CCN(C)CC3)cc1 [Example 61, 2-Benzyl-7-methyl-4-p-tolyl-6,7,8,9-tetrahydro-5H-pyrimido[4,5-d]azepine]
Rat 5-HT7a receptor
  Ki: 250 nM
5-HT2B receptor [1]
  Ki: 15 nM
[2]
  Ki: 35 nM
[6]
  Ki: 20 nM
5-HT2A receptor [4]
  Ki: 1.9 nM

## CN1CCc2nc(Cc3ccc(F)cc3)nc(-c3ccc(F)cc3)c2CC1 [Example 62, 2-(4-Fluoro-benzyl)-4-(4-fluoro-phenyl)-7-methyl-6,7,8,9-tetrahydro-5H-pyrimido[4,5-d]azepine]
Rat 5-HT7a receptor
  Ki: 5270 nM
5-HT2B receptor [1]
  Ki: 21 nM
[2]
  Ki: 21 nM
[6]
  Ki: 27 nM
5-HT2A receptor [3]
  Kb: 1.58 nM
5-HT2B receptor [5]
  Kb: 50.1 nM
5-HT2A receptor [4]
  Ki: 0.75 nM

## C=C1CN(C)CCc2c1nc(Cc1ccc(F)cc1)nc2-c1ccc(F)cc1 [Example 63, 2-(4-Fluoro-benzyl)-4-(4-fluoro-phenyl)-7-methyl-9-methylene-6,7,8,9-tetrahydro-5H-pyrimido[4,5-d]azepine]
Rat 5-HT7a receptor
  Ki: > 10000 nM
5-HT2B receptor [1]
  Ki: 52 nM
[2]
  Ki: 46 nM
[6]
  Ki: 60 nM
5-HT2A receptor [3]
  Kb: 15.8 nM
5-HT2B receptor [5]
  Kb: 501 nM
5-HT2A receptor [4]
  Ki: 1.5 nM

## Fc1ccc(-c2nc(Cc3ccccc3)nc3c2CCCNC3)cc1 [Example 64, 2-Benzyl-4-(4-fluoro-phenyl)-6,7,8,9-tetrahydro-5H-pyrimido[4,5-c]azepine hydrochloride]
Rat 5-HT7a receptor
  Ki: > 10000 nM
5-HT2B receptor [1]
  Ki: 1300 nM
[2]
  Ki: 70 nM
[6]
  Ki: 1300 nM
5-HT2A receptor [3]
  Kb: 79.4 nM
5-HT2A receptor [4]
  Ki: 10 nM

## CC(C)c1nc2c(c(-c3ccc(F)cc3)n1)CCCNC2 [Example 65, 4-(4-Fluoro-phenyl)-2-isopropyl-6,7,8,9-tetrahydro-5H-pyrimido[4,5-c]azepine hydrochloride]
Rat 5-HT7a receptor
  Ki: > 10000 nM
5-HT2B receptor [1]
  Ki: 300 nM
[2]
  Ki: 570 nM
[6]
  Ki: > 10000 nM
5-HT2A receptor [4]
  Ki: 20 nM

## Fc1ccc(-c2nc(Cc3ccccc3)nc3c2CCN(Cc2ccccc2)C3)cc1 [Example 70, 2,7-Dibenzyl-4-(4-fluoro-phenyl)-5,6,7,8-tetrahydro-pyrido[3,4-d]pyrimidine hydrochloride]
Rat 5-HT7a receptor
  Ki: > 10000 nM
5-HT2B receptor [1]
  Ki: > 10000 nM
[2]
  Ki: 3730 nM
[6]
  Ki: 250 nM
5-HT2A receptor [4]
  Ki: 117 nM

## Cc1ccc(-c2nc(Cc3ccccc3)nc3c2CCN(Cc2ccccc2)C3)cc1 [Example 71, 2,7-Dibenzyl-4-p-tolyl-5,6,7,8-tetrahydro-pyrido[3,4-d]pyrimidine]
Rat 5-HT7a receptor
  Ki: > 10000 nM
5-HT2B receptor [1]
  Ki: 4330 nM
[2]
  Ki: 3580 nM
[6]
  Ki: 300 nM
5-HT2A receptor [4]
  Ki: 1030 nM

## Fc1ccc(-c2nc(Cc3ccccc3)nc3c2CCNC3)cc1 [Example 76, 2-Benzyl-4-(4-fluoro-phenyl)-5,6,7,8-tetrahydro-pyrido[3,4-d]pyrimidine hydrochloride]
Rat 5-HT7a receptor
  Ki: 150 nM
5-HT2B receptor [1]
  Ki: 315 nM
[2]
  Ki: 75 nM
[6]
  Ki: 300 nM
5-HT2A receptor [3]
  Kb: 100 nM
5-HT2A receptor [4]
  Ki: 9 nM

## Cc1ccc(-c2nc(Cc3ccccc3)nc3c2CCNC3)cc1 [Example 77, 2-Benzyl-4-p-tolyl-5,6,7,8-tetrahydro-pyrido[3,4-d]pyrimidine hydrochloride]
Rat 5-HT7a receptor
  Ki: 22 nM
5-HT2B receptor [1]
  Ki: 200 nM
[2]
  Ki: 130 nM
[6]
  Ki: 400 nM
5-HT2A receptor [4]
  Ki: 15 nM

## c1ccc(Cc2nc3c(c(-c4ccccc4)n2)CCNC3)cc1 [Example 78, 2-Benzyl-4-phenyl-5,6,7,8-tetrahydro-pyrido[3,4-d]pyrimidine]
Rat 5-HT7a receptor
  Ki: 400 nM
5-HT2B receptor [1]
  Ki: 900 nM
[2]
  Ki: 380 nM
5-HT2A receptor [3]
  Kb: 79.4 nM
5-HT2A receptor [4]
  Ki: 25 nM

## CC(C)c1nc2c(c(-c3ccc(F)cc3)n1)CCNC2 [Example 80, 4-(4-Fluoro-phenyl)-2-isopropyl-5,6,7,8-tetrahydro-pyrido[3,4-d]pyrimidine hydrochloride]
Rat 5-HT7a receptor
  Ki: > 10000 nM
5-HT2B receptor [1]
  Ki: 158 nM
[2]
  Ki: 940 nM
[6]
  Ki: 2800 nM
5-HT2A receptor [4]
  Ki: 11 nM

## CC(C)N1CCc2c(nc(Cc3ccccc3)nc2-c2ccc(F)cc2)C1 [Example 83, 2-Benzyl-4-(4-fluoro-phenyl)-7-isopropyl-5,6,7,8-tetrahydro-pyrido[3,4-d]pyrimidine]
Rat 5-HT7a receptor
  Ki: > 10000 nM
5-HT2B receptor [1]
  Ki: 1000 nM
[2]
  Ki: 300 nM
[6]
  Ki: 230 nM
5-HT2A receptor [4]
  Ki: 30 nM

## CC(C)c1nc(-c2ccc(F)cc2)c2c(n1)C(C)CNC2 (centres unmarked) [Example 100, 4-(4-Fluoro-phenyl)-2-isopropyl-8-methyl-5,6,7,8-tetrahydro-pyrido[4,3-d]pyrimidine hydrochloride]
Rat 5-HT7a receptor
  Ki: > 10000 nM
5-HT2B receptor [1]
  Ki: 900 nM
[2]
  Ki: 300 nM
5-HT2A receptor [3]
  Kb: 100 nM
5-HT2A receptor [4]
  Ki: 14 nM

## Cc1ccc(-c2nc(C(C)C)nc3c2CNCC3C)cc1 (centres unmarked) [Example 102, 2-Isopropyl-8-methyl-4-p-tolyl-5,6,7,8-tetrahydro-pyrido[4,3-d]pyrimidine hydrochloride]
Rat 5-HT7a receptor
  Ki: > 10000 nM
5-HT2B receptor [1]
  Ki: 150 nM
[2]
  Ki: 230 nM
[6]
  Ki: 370 nM
5-HT2A receptor [4]
  Ki: 20 nM

## CC(C)c1nc2c(c(-c3ccc(F)cc3)n1)CCC(N1CCCC1)C2 (centres unmarked) [Example 107, 4-(4-Fluoro-phenyl)-2-isopropyl-7-pyrrolidin-1-yl-5,6,7,8-tetrahydro-quinazoline]
Rat 5-HT7a receptor
  Ki: > 10000 nM
5-HT2B receptor [1]
  Ki: 275 nM
[2]
  Ki: 500 nM
[6]
  Ki: 4000 nM
5-HT2A receptor [4]
  Ki: 12 nM

## CNC1CCc2nc(C(C)C)nc(-c3ccc(F)cc3)c2C1 (centres unmarked) [Example 109, [4-(4-Fluoro-phenyl)-2-isopropyl-5,6,7,8-tetrahydro-quinazolin-6-yl]-methyl-amine hydrochloride]
Rat 5-HT7a receptor
  Ki: > 10000 nM
5-HT2B receptor [1]
  Ki: > 10000 nM
[2]
  Ki: > 10000 nM
[6]
  Ki: > 10000 nM
5-HT2A receptor [4]
  Ki: 400 nM
